Series [1] is described as follows: solubility in aqueous solutions. The series is classed as physicochemical. The following applies: for CPS-Cys particularly in slightly acidic pH. An excerpt:
(§1) Initial synthesis was of the 11-mer CPS peptide in which its C-terminal end was an N-hydroxysuccinimide (NHS) ester. This CPS-OSu peptide was expected to be highly reactive to the amine groups of human insulin and thus facilitate the conjugation reactions between CPS and Insulin. […] As a result, this CPS-OSu activated ester was cyclized via an internal amide bond. To overcome this side-reaction, a derivative of the CPS-OSu peptide in which all three amine groups of this peptide were protected by a Boc group (tert-Butyloxycarbonyl) was also made.
(§2) The 12-mer CPS-Cys peptide Sequence of CPS-Cys Peptide: K-L-K-L-A-L-A-L-A-L-A-C (Seq ID no. 2) was synthesized by conventional solid-phase peptide synthesis methodology. Standard synthesis protocols based on Fmoc chemistry were used. After synthesis, the crude peptides were cleaved from the solid support and purified by C18 reverse-phase HPLC eluted with acetonitrile aqueous buffers. The purified peptide was characterized by analytical HPLC analysis (FIG. 2, top panel) and mass spectrometry analysis (FIG. 2a, bottom panel, calculated MW=1227.6 Da and measured MW (MH+)=1227.9 Da).

Series [2] can be described thus: stability of the peptide. It is filed as physicochemical. The conditions noted are these: CPS-OSu: reacts with its own amine groups, cyclized via internal amide bond.
Source text: as §1, §2

The subject of series [3] is CCK-releasing cells. The conditions noted are these: "is said to elicit"; assay of WO 01/41812; cited from earlier work.

Ends that are not written are not given here. Peptide text beside a SMILES is read from it. * marks the point of attachment. Boc = CC(C)(C)OC(=O)*; OSu = O=C1CCC(=O)N1O*

For `CC(C)C[C@H](NC(=O)[C@H](C)NC(=O)[C@H](CC(C)C)NC(=O)[C@H](CCCCNC(=O)OC(C)(C)C)NC(=O)[C@H](CC(C)C)NC(=O)[C@H](CCCCNC(=O)OC(C)(C)C)NC(=O)OC(C)(C)C)C(=O)N[C@@H](C)C(=O)N[C@@H](CC(C)C)C(=O)N[C@@H](C)C(=O)N[C@@H](CC(C)C)C(=O)N[C@@H](C)C(=O)ON1C(=O)CCC1=O` [amine-protected peptide] (Boc-K(Boc)LK(Boc)LALALALA-OSu), the “solubility in aqueous solutions” value in series [1] is reported as “poor solubility”. Consider “KLKLALALALAC [CPS-Cys peptide, K-L-K-L-A-L-A-L-A-L-A-C]”, for which the “stability of the peptide” value in series [2] is recorded as “stable”. The “solubility in aqueous solutions” value in series [1] is reported as “good solubility”.

Turning to “STFWAYQPDGDNDPTDYQKYEHTSSPSQLLAPGDYPCVIEV (listed as Homo sapiens) [Native LCRF, luminal cholecystokinin releasing factor]”, in series [3], the “increase in CCK secretion” value was ~300%.
